# Experiments:
# [1] = system: B16F10 murine melanoma cells; experiment: Murine melanoma tumor model (B16F10 in C57BL/6 mice); assay type: in vivo
# Procedure: Mice were injected with 1×10^5 B16F10 murine melanoma cells murine subcutaneously on the left flank. Once tumors become palpable (approximately 5 days), mice were randomly allocated to receive treatment with either: 20% polyethylene glycol (PEG) in 5% […] (vehicle control for the disclosed HIF-2α stabilizer) and PBS (vehicle control for GM-CSF), 20% PEG and GM-CSF (100 ng per mouse in a 50 μL volume), the disclosed HIF-2α stabilizer (17.5 mg/kg in a 100 μL volume) and PBS, or the disclosed HIF-2α stabilizer and GM-CSF (same doses). The PBS and GM-CSF were administered intratumorally, while the 20% PEG and the disclosed HIF-2α stabilizer were administered intraperitoneally. Mice were treated 3 times per week until tumors reached a size of 20 mm in any dimension (approximately 2.5 weeks), at which point mice were euthanized, in accordance with institutional policy. Tumor diameters were measured 3 times per week with calipers, and tumor volumes were calculated as follows: Tumor volume=0.5×[(large diameter)×(small diameter)^2].
# 6-8-week-old C57BL/6 mice were injected with 1×10^5 B16F10 murine melanoma cells murine subcutaneously on the left flank. Once tumors become palpable (approximately 5 days), mice were randomly allocated to receive treatment with either: 20% PEG-400 in 5% sucrose (vehicle for disclosed HIF-2α stabilizer) and PBS (vehicle for GM-CSF), 20% PEG-400 and GM-CSF (100 ng per mouse in a 50 μL volume), disclosed HIF-2α stabilizer (17.5 mg/kg mouse weight in a 100 μL volume) and PBS, or the disclosed HIF-2α stabilizer and GM-CSF (same concentrations). The disclosed HIF-2α stabilizer (or the vehicle control) was administered intraperitoneally, while GM-CSF (or the vehicle control) was administered intratumorally. Mice were treated […] 3 times per week until tumors reached a size of 20 mm in any dimension (approximately 2.5 weeks), at which point mice were be euthanized, in accordance with institutional policy. Tumor diameters were measured 3 times per week with calipers, and tumor volumes will be calculated as follows: Tumor volume=0.5×[(large diameter)×(small diameter)^2]. For experiments analyzing the effect of neutralizing sVEGFR-1 in combination with disclosed HIF-2α stabilizer treatment, mice were treated intraperitoneally 3×/week with either disclosed HIF-2α stabilizer or vehicle control, and intratumorally with either 4 μg anti-VEGFR-1 neutralizing antibody (R&D Systems) or 4 μg polyclonal goat IgG isotype control (Santa Cruz Biotechnology) in a 50 μL volume. All protocols were approved by the Ohio State University Animal Care and Use Committee, and mice were treated in accordance with institutional guidelines for animal care.
# The ANOVA test was used to compare independent measurements between multiple treatment groups. The data was log-transformed to normalize the variance across groups. P-values were adjusted using the Holm's procedure to conserve the type I error at 0.05 due to the multiple comparisons. For tumor growth data, changes in tumor volume over time were assessed via a longitudinal model. Tumor values were log-transformed, and estimated slopes (changes in tumor volume over time) were calculated with 95% confidence intervals. Estimated differences in tumor volume were calculated by a random-effects regression of the longitudinal data. For all analyses, p≦0.05 was considered statistically significant.
# 6-8-week-old C57BL/6 mice or SCID mice were injected with 1×10^5 B16F10 murine melanoma cells or 1×10^6 A375 human melanoma cells, respectively, subcutaneously on the left flank. […]
# sVEGFR-1 = sVEGFR-1 production by human peripheral blood monocytes (ELISA, real-time PCR); assay type: cell-based; conditions: monocytes stimulated with GM-CSF alone; FIG. 11D
# Procedure: (§1) Human peripheral blood mononuclear cells (PBMCs) were isolated from fresh peripheral blood leukocyte source packs (American Red Cross, Columbus Ohio) by density gradient centrifugation over Lymphocyte Separation Medium (Cellgro). Monocytes were purified from total PBMCs by layering over FBS. Monocytes were cultured in endotoxin-free RPMI-1640 supplemented with 1% fetal bovine serum (FBS), 0.1% human serum albumin (HSA), and 10 μg/mL of the endotoxin inhibitor polymyxin B. In some experiments, freshly isolated monocytes were differentiated into macrophages by three-day culture in media containing 10% FBS, 1% PSA (penicillin G sodium, streptomycin sulfate, and amphotericin B), and 20 ng/mL M-CSF. Macrophages were serum-starved for 2 hours prior to stimulation. Monocytes or monocyte-derived macrophages were treated for 24 hours with 10 ng/mL GM-CSF, 10 μM disclosed HIF-2α stabilizer, or an equivalent volume of the vehicle controls (PBS or DMSO, respectively). Cell-free culture supematants were harvested and analyzed for VEGF or sVEGFR-1 by ELISA (R&D Systems).
# (§2) Human monocytes were left untreated or were stimulated with 100 ng/mL GM-CSF at normoxia or at 0.5% O2. At various time-points, cells were harvested in Trizol reagent (Invitrogen) and RNA was extracted in chloroform and then purified using the RNeasy Minikit (Qiagen). In murine studies, organs harvested at the time of euthanasia were flash-frozen in liquid nitrogen, pulverized in liquid nitrogen, and then dissolved in Trizol. cDNA was generated from 1 μg of RNA using the Superscript First Strand Synthesis System (Invitrogen) and used for real-time PCR using previously described primers and SYBR Green PCR Master Mix (Applied Biosciences), according to the manufacturer's instructions. Data were analyzed according to the comparative threshold method and normalized against the β-actin internal control transcript. Results are semi-quantitative and represent the fold difference in transcript levels in a particular sample as compared with levels in untreated cells from the same donor.
# VEGF = VEGF production by human peripheral blood monocytes (ELISA, real-time PCR); assay type: cell-based; conditions: FIG. 11C
# Procedure: as §1
# as §2, with “donor. […]” for “donor.”
# VEGF mRNA = experiment: Real-time PCR of VEGF mRNA within B16F10 tumors; assay type: in vivo, mice; conditions: p=0.490, FIG. 13B
# Procedure: as §2
# 6-8-week-old C57BL/6 mice were injected with 1×10^5 B16F10 murine melanoma cells murine subcutaneously on the left flank. […] Tumor diameters were measured 3 times per week with calipers, and tumor volumes will be calculated as follows: Tumor volume=0.5×[(large diameter)×(small diameter)^2]. […]
# [2] = system: A375 human melanoma cells; experiment: A375 human melanoma tumors in SCID mice; assay type: in vivo; conditions: at the time of sacrifice; stabilizer 17 mg/kg, docetaxel 1 mg/kg, IP 3 times per week
# Procedure: 6-8-week-old C57BL/6 mice or SCID mice were injected with 1×10^5 B16F10 murine melanoma cells or 1×10^6 A375 human melanoma cells, respectively, subcutaneously on the left flank. […] Tumor diameters were measured 3 times per week with calipers, and tumor volumes will be calculated as follows: Tumor volume=0.5×[(large diameter)×(small diameter)^2].
# In the study, immunocompromised SCID mice were inoculated with A375 human melanoma tumors subcutaneously. Starting when the tumors became palpable (7 days after injection), mice were treated with either the cytotoxic chemotherapy docetaxel or with the disclosed HIF-2α stabilizer. The disclosed HIF-2α stabilizer was given at a dose of 17 mg/kg, and the docetaxel was given at 1 mg/kg. Both drugs were given IP 3 times per week. […] At the time of sacrifice, the tumors in the mice that received only the disclosed HIF-2α stabilizer were approximately 78% of the size of the control tumors, the tumors of the mice that received only chemotherapy were approximately 50% of the size of the control tumors, and the tumors of the mice that received both drugs were approximately 16% of the size of the control tumors.
Compound,"tumor volume reduction, GM-CSF given I.T. vs I.P. ([1]; B16F10 melanoma, stabilizer 17 mg/kg I.P. in all cases, no control group, FIG. 4)","tumor growth / tumor volume ([1]; B16F10 melanoma, stabilizer 17 mg/kg I.P., GM-CSF I.T., vs PBS control, FIG. 3)","average tumor volumes vs vehicle controls ([1]; day 16 of treatment, 3×/week, GM-CSF 100 ng/mouse intratumoral, stabilizer 17.5 mg/kg intraperitoneal, each p<0.001)",monocyte production of sVEGFR-1 (sVEGFR-1),"VEGF protein in supernatants (free VEGF ELISA) (VEGF; GM-CSF-stimulated monocytes, VEGF neutralized by sVEGFR-1)",VEGF transcript levels (VEGF; monocytes stimulated with GM-CSF alone),levels of intratumoral VEGF vs vehicle control-treated mice (VEGF mRNA),tumor size as % of the size of the control tumors [2]
GM-CSF: granulocyte-macrophage colony-stimulating factor,greater reduction of tumor volume,reduction in tumor volume,significantly smaller,induced,undetectable,increased VEGF production,failed to increase,
"CC(=O)O[C@@]12CO[C@@H]1C[C@H](O)[C@@]1(C)C(=O)[C@H](O)C3=C(C)[C@@H](OC(=O)[C@H](O)[C@@H](NC(=O)OC(C)(C)C)c4ccccc4)C[C@@](O)([C@@H](OC(=O)c4ccccc4)[C@H]21)C3(C)C [docetaxel, reference compound]",,,,,,,,approximately 50%
